Experiments:
[1] = an = ratio of the nth substance listed, in mol/kg; settings: 101 kPa, Liquid, Vibrating tube method
[2] = 298.15 K; 101.33 kPa; Liquid

CN(C)C=O [dimethylformamide] + C[N+](C)(C)C.[O-][Cl+3]([O-])([O-])[O-]
[1], a2 = 0
Settings | mass density [kg/m3]
283.15 K | 958.067
293.15 K | 948.553
298.15 K | 943.79
303.15 K | 939.014
313.15 K | 929.43
323.15 K | 919.797
333.15 K | 910.117

CC[N+](CC)(CC)CC.[O-][Cl+3]([O-])([O-])[O-] [tetraethylammonium perchlorate] + CN(C)C=O
mass density [kg/m3], [1]
Settings | a1 = 0.02269 | a1 = 0.04218 | a1 = 0.06274 | a1 = 0.08215 | a1 = 0.1147 | a1 = 0.1455 | a1 = 0.1761 | a1 = 0.2062
283.15 K | 959.351 | 960.443 | 961.586 | 962.663 | 964.449 | 966.152 | 967.825 | 969.465
293.15 K | 949.863 | 950.975 | 952.142 | 953.234 | 955.047 | 956.775 | 958.473 | 960.139
298.15 K | 945.114 | 946.237 | 947.409 | 948.513 | 950.338 | 952.082 | 953.791 | 955.471
303.15 K | 940.349 | 941.482 | 942.667 | 943.781 | 945.623 | 947.378 | 949.101 | 950.793
313.15 K | 930.795 | 931.951 | 933.155 | 934.288 | 936.165 | 937.945 | 939.7 | 941.419
323.15 K | 921.19 | 922.369 | 923.599 | 924.748 | 926.661 | 928.473 | 930.257 | 932.007
333.15 K | 911.533 | 912.731 | 913.987 | 915.156 | 917.106 | 918.957 | 920.766 | 922.55

CC(=O)N(C)C [N,N-dimethylethanamide]
Settings | mass density [kg/m3]
[2] | 936.357

CCCC[N+](CCCC)(CCCC)CCCC.[O-][Cl+3]([O-])([O-])[O-] [tetrabutylammonium perchlorate] + CN(C)C=O
mass density [kg/m3], [1]
Settings | a1 = 0.02852 | a1 = 0.05393 | a1 = 0.07866 | a1 = 0.1047 | a1 = 0.1431 | a1 = 0.1824 | a1 = 0.222 | a1 = 0.2619
283.15 K | 959.148 | 960.097 | 961.015 | 961.969 | 963.376 | 964.794 | 966.232 | 967.661
293.15 K | 949.672 | 950.653 | 951.604 | 952.588 | 954.042 | 955.511 | 956.99 | 958.466
298.15 K | 944.93 | 945.929 | 946.892 | 947.89 | 949.37 | 950.86 | 952.366 | 953.862
303.15 K | 940.173 | 941.191 | 942.17 | 943.187 | 944.69 | 946.204 | 947.732 | 949.254
313.15 K | 930.632 | 931.686 | 932.697 | 933.756 | 935.303 | 936.87 | 938.448 | 940.016
323.15 K | 921.05 | 922.138 | 923.191 | 924.277 | 925.877 | 927.496 | 929.126 | 930.747
333.15 K | 911.409 | 912.535 | 913.625 | 914.75 | 916.4 | 918.08 | 919.765 | 921.436

CN(C)C=O [dimethylformamide] + CC[N+](CC)(CC)CC.[O-][Cl+3]([O-])([O-])[O-]
[1], a2 = 0
Settings | mass density [kg/m3]
283.15 K | 958.067
293.15 K | 948.553
298.15 K | 943.79
303.15 K | 939.014
313.15 K | 929.43
323.15 K | 919.797
333.15 K | 910.117

CN(C)C=O [dimethylformamide] + CCC[N+](CCC)(CCC)CCC.[O-][Cl+3]([O-])([O-])[O-]
[1], a2 = 0
Settings | mass density [kg/m3]
283.15 K | 958.067
293.15 K | 948.553
298.15 K | 943.79
303.15 K | 939.014
313.15 K | 929.43
323.15 K | 919.797
333.15 K | 910.117

CN(C)C=O [dimethylformamide] + CCCC[N+](CCCC)(CCCC)CCCC.[O-][Cl+3]([O-])([O-])[O-]
[1], a2 = 0
Settings | mass density [kg/m3]
283.15 K | 958.067
293.15 K | 948.553
298.15 K | 943.79
303.15 K | 939.014
313.15 K | 929.43
323.15 K | 919.797
333.15 K | 910.117

CN(C)C=O [dimethylformamide]
Settings | mass density [kg/m3]
[2] | 943.792

— the NIST ThermoML archive (doi:10.1016/j.jct.2005.05.008)
